Assay results as given in publication PMC12846068, “Insights into Transport Function of the Murine Organic Anion-Transporting Polypeptide OATP1B2 by Comparison with Its Rat and Human Orthologues” (Toxics, 2025).

Columns and labels:
rOATP1B2 = molecular target: T1, rOATP1B2 (Rattus norvegicus, UniProt Q9QZX8); assay: rOATP1B2-mediated uptake of [3H]-E1S and [3H]-TCA in overexpressing HEK293 cells; format: cell-based; settings: rOATP1B2, 1 µM substrate; E1S 5 min, TCA 10 min
T1 construct: The full-length mOATP1B2 and rOATP1B2 consist of 689 and 678 amino acids
T1 sequence (Q9QZX8 1-687): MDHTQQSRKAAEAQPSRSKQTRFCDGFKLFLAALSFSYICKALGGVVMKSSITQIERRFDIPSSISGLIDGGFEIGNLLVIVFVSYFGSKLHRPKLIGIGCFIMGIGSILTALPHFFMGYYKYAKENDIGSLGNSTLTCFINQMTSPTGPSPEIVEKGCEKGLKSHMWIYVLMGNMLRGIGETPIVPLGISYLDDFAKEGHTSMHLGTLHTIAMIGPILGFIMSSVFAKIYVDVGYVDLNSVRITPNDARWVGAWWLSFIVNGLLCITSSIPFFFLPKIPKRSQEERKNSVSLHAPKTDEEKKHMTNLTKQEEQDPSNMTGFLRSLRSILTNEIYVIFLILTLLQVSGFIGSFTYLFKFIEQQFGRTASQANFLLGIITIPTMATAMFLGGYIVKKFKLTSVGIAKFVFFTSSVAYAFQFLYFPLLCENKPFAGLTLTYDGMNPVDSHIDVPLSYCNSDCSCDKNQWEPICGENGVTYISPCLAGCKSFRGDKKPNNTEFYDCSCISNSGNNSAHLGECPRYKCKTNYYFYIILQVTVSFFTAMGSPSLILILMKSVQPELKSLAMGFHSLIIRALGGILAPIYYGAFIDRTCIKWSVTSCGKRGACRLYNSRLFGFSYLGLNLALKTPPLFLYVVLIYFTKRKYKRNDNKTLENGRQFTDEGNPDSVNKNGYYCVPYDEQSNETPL
Experimental: (§1) To perform transporter-mediated uptake, both stably transfected cells and control cells (seeding density 2 × 10^5) were cultured for three days in 24-well plates (coated with 0.1 mg/mL poly-D-lysine hydrobromide). Then, 24 h before the start of the transport experiment, the gene expression of mOapt1b2 and rOATP1B2 was induced by 1 µg/mL tetracycline. At the beginning of each experiment, the cells were washed three times with pre-warmed 0.5 mL HBSS incubation buffer (supplemented with 20 mM HEPES, pH 7.4) and equilibrated for at least 20 min as described previously [27]. After aspirating the incubation buffer, the uptake process was started by adding 200 µL HBSS incubation buffer containing radio-labeled and unlabeled substances to each well and incubated at 37 °C for an appropriate time. The uptake was stopped by aspirating the reaction mixture and washing the cells 3 times with 0.4 mL ice-cold PBS buffer. After cell lysis with 0.6 mL of 1N NaOH overnight, the whole content of each well (0.6 mL) was transferred to a 6 mL scintillation vial (Sarstedt) containing 2.5 mL scintillation liquid (Rotiszint®eco plus, Carl Roth). The ^3H content was measured in a scintillation counter (Perkin Elmer TRICarb 2810 or HIDEX 600SL). […]
(§2) The absolute amount (pmol) of the radio-labeled probe substrate uptake was calculated and related to the determined protein values as well as the incubation time. […]

mOATP1B2 = molecular target: T2, mOATP1B2 (Mus musculus, UniProt Q9JJL3); assay: mOATP1B2-mediated uptake of [3H]-E1S and [3H]-TCA in overexpressing HEK293 cells; format: cell-based
T2 construct: The full-length mOATP1B2 and rOATP1B2 consist of 689 and 678 amino acids
T2 sequence (Q9JJL3 1-689): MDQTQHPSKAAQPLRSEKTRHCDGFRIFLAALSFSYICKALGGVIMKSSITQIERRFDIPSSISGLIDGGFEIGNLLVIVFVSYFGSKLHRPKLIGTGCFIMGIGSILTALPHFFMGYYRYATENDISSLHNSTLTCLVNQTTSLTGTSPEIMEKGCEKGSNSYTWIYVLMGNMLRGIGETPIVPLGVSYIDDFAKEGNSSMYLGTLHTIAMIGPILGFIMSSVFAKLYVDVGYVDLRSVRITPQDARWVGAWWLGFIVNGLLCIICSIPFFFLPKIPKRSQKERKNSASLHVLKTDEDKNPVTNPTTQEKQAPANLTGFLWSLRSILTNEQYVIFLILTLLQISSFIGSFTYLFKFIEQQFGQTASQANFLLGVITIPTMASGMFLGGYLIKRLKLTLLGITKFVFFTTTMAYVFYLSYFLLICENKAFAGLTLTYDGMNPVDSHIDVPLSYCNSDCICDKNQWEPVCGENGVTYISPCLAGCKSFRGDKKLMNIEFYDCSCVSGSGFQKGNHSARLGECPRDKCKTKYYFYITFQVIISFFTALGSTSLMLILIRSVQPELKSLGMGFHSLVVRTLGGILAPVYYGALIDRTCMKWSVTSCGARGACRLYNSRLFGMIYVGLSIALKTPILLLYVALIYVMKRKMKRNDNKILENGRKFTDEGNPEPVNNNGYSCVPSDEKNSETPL
Experimental: as §1, §2

hOATP1B3 = molecular target: T3, hOATP1B3 (Homo sapiens, UniProt Q9NPD5); assay: hOATP1B3-mediated uptake of [3H]-E1S and [3H]-TCA in transfected HEK293 cells
T3 sequence (Q9NPD5 1-702): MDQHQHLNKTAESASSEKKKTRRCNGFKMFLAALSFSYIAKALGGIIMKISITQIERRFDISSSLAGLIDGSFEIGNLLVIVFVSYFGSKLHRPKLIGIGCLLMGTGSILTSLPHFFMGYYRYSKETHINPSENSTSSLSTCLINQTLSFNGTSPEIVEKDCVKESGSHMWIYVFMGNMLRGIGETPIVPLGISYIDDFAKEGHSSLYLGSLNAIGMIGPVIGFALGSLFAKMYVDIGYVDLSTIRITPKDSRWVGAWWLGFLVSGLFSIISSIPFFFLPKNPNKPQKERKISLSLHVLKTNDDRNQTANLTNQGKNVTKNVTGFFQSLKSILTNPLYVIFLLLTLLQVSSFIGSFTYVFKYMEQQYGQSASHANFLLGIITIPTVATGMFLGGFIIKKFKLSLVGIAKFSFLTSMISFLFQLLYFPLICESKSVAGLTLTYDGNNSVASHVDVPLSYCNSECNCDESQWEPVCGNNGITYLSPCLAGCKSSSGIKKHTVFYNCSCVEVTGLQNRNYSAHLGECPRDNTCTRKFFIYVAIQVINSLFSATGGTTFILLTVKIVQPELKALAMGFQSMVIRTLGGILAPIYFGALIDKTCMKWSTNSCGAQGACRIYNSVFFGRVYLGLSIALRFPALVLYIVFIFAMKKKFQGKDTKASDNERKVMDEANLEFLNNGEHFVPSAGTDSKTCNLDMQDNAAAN
Experimental: To perform transporter-mediated uptake, both stably transfected cells and control cells (seeding density 2 × 10^5) were cultured for three days in 24-well plates (coated with 0.1 mg/mL poly-D-lysine hydrobromide). Then, 24 h before the start of the transport experiment, the gene expression of mOapt1b2 and rOATP1B2 was induced by 1 µg/mL tetracycline. At the beginning of each experiment, the cells were washed three times with pre-warmed 0.5 mL HBSS incubation buffer (supplemented with 20 mM HEPES, pH 7.4) and equilibrated for at least 20 min as described previously [27]. After aspirating the incubation buffer, the uptake process was started by adding 200 µL HBSS incubation buffer containing radio-labeled and unlabeled substances to each well and incubated at 37 °C for an appropriate time. The uptake was stopped by aspirating the reaction mixture and washing the cells 3 times with 0.4 mL ice-cold PBS buffer. After cell lysis with 0.6 mL of 1N NaOH overnight, the whole content of each well (0.6 mL) was transferred to a 6 mL scintillation vial (Sarstedt) containing 2.5 mL scintillation liquid (Rotiszint®eco plus, Carl Roth). The ^3H content was measured in a scintillation counter (Perkin Elmer TRICarb 2810 or HIDEX 600SL).
To verify the results for the human transporters, both substrates were tested at a concentration of 0.01 µM. All experiments were conducted at least on two separate days as triplicates.
The absolute amount (pmol) of the radio-labeled probe substrate uptake was calculated and related to the determined protein values as well as the incubation time. The transporter-mediated uptake rate (net uptake) was obtained by subtracting the uptake rate in control (vector only)-transfected HEK293 cells from the uptake rate in transporter-transfected cells. To calculate the Km of the respective substrate, the transporter-mediated net uptake (pmol/mg protein/min) was plotted against the substrate concentrations in SigmaPlot 13. Weighted nonlinear regression was used for curve fitting (ligand binding with one site saturation).

C[C@H](CCC(=O)NCCS(=O)(=O)O)[C@H]1CC[C@H]2[C@@H]3[C@H](O)C[C@@H]4C[C@H](O)CC[C@]4(C)[C@H]3C[C@H](O)[C@]12C [TCA, taurocholate]
uptake compared to vector-transfected control cells (rOATP1B2): > 70 fold
uptake compared to vector-transfected control cells (mOATP1B2; mOATP1B2, 1 µM substrate, E1S 5 min, TCA 10 min): more than 100 fold
affinity of mOATP1B2 lower than that of rOATP1B2 (mOATP1B2; ratio of Km values mOATP1B2/rOATP1B2): 4.6 fold
uptake compared to vector-transfected control cells (hOATP1B3; hOATP1B3, 0.01 µM substrate): 2.7 fold
uptake over control cells / substrate status (hOATP1B3; hOATP1B3, substrate concentration not stated at the place): 2-3 fold
Km at 10 min (hOATP1B3; human, pH 7.4): 21 ± 8 µM
